From article PMC8952364, “Polyphenols as Inhibitors of Antibiotic Resistant Bacteria—Mechanisms Underlying Rutin Interference with Bacterial Virulence” (Pharmaceuticals, 2022)
In brackets after ≈: the same amount, converted by molar mass.

Legend:
E. coli IBRS E003 = assay: Antimicrobial microdilution assay (MIC/MBC); assay type: cell-based, Escherichia coli; details: Escherichia coli, IBRSE003
Outline: (§1)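 Polyphenols 0.0039–1 mg/mL, stocks in 30% ethanol; inoculum 0.5 McFarland diluted twenty-fold, mixed 1:10; 24 h, 37 °C. MIC = no visible growth (binocular microscope). Streptomycin positive control, ethanol negative control; triplicate.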

E. coli IMD989 = assay: Antimicrobial microdilution assay (MIC/MBC); assay type: cell-based, Escherichia coli; details: Escherichia coli, IMD989
Outline: as §1

K. pneumoniae IT977 = assay: Antimicrobial microdilution assay (MIC/MBC); assay type: cell-based, Klebsiella pneumoniae; details: Klebsiella pneumoniae, IT977
Outline: as §1

K. pneumoniae Ni9 = assay: Antimicrobial microdilution assay (MIC/MBC); assay type: cell-based, Klebsiella pneumoniae; details: Klebsiella pneumoniae, NI9
Outline: as §1

S. infantis 1371/1 = assay: Antimicrobial microdilution assay (MIC/MBC); assay type: cell-based, Salmonella Infantis; details: Salmonella enterica, 1371/1
Outline: as §1

MRSA IBRS MRSA 011 = assay: Catheter biofilm inhibition model; assay type: cell-based, Staphylococcus aureus; details: even in the sub-MIC concentration, 24 h
Description: The method was performed as described previously, with some modifications. Sterile silicon 16-mm Romed catheters (Van Oostveen Medical, Wilnis, The Netherlands) were cut into 1 cm lengths and placed in 24-well plates (Sarstedt, Nümbrecht, Germany). P. aeruginosa IBRS P001 and MRSA in TSB with 2% glucose (Torlak, Belgrade, Serbia) and rutin (0.25–1 MIC) were added for the inhibition assay. After incubation (37 °C, 24 h), the catheters were washed with PBS and transferred to 1.5 mL tubes. PBS was added and tubes were vortexed vigorously. The samples were diluted and seeded onto Plate Count Agar (HiMedia Laboratories, Mumbai, India). After being incubated at 37 °C for 24 h, the CFU (colony forming units) count was determined and the inhibition percentage relative to the untreated control was calculated.

[1] = test system: P. aeruginosa IBRS P001 biofilm; assay: Biofilm MTT assay (biofilm formation); assay type: cell-based, Pseudomonas aeruginosa; details: rutin MIC, co-incubation 24 h
Description: The impact of rutin on P. aeruginosa IBRS P001 biofilm formation was determined as previously described by estimating the metabolic activity of microbial cells using an MTT assay. […] The supernatants were then ejected and the biofilms washed with PBS. MTT reagent (200 μL, 0.5 mg/mL) was added and the plate was incubated at 37 °C in the dark for 2 h. The resulting dye was dissolved in DMSO and the absorbance was measured at 570 nm in a microtiter plate reader Multiskan™ FC Microplate Photometer, Thermo Scientific™. The inhibition percentage of biofilm cell viability was calculated:%Inhibition = [(A570control − A570sample)/A570control] × 100
With A570control representing the absorbance of untreated sample, and A570sample representing the absorbance of the rutin treated sample. A solvent-treated sample was used as the control.

[2] = test system: 24 h old P. aeruginosa IBRS P001 biofilms; assay: Biofilm eradication, eDNA assay; assay type: cell-based, Pseudomonas aeruginosa; details: MBC–4 MBC, Figure 5D
Description: The quantity of eDNA was determined as previously described, with some modifications. […] Subsequently, the planktonic cells were removed, and the wells were washed with PBS. TE buffer (Tris-EDTA buffer solution) was added to the wells and content was mixed vigorously by pipetting. The samples were transferred to 1.5 mL tubes and centrifuged at 10,000× g for 10 min. After removal of the supernatant, the pellet was suspended in a TE buffer by vortexing. Absorbance of the supernatant (260 nm) was measured after centrifugation at 10,000× g for 15 min. We calculated the inhibition percentage of eDNA relative to an untreated control. The solvent treated sample was used as the control.
The bacterial cells were incubated in TSB enriched with 2% glucose in 96-well plates (Sarstedt, Germany) with adhesive bottom at 37 °C for 24 h. After incubation, wells were washed with PBS, and rutin (MBC–4 MBC) in TSB with 2% glucose was added. Incubation continued at 37 °C for another 24 h. The planktonic cells were removed.
The assays continued as described above for the crystal violet antibiofilm assay for the measurement of biofilm mass, biofilm MTT assay for the interference with cell viability, Congo red binding assay for estimation of exopolysaccharide production, and eDNA assay.

[3] = test system: P. aeruginosa IBRS P001 protease production; assay: Protease assay (azocasein); assay type: cell-based, Pseudomonas aeruginosa; details: 0.25 mg/mL (0.5 MIC), compared to the control
Description: The impact of rutin on the proteolytic activity of P. aeruginosa IBRS P001 was measured using azocasein as a substrate. […] Samples were centrifuged at 9660 g, room temperature, for 10 min (Heraeus biofuge stratos centrifuge, Thermo Electron Corporation, Waltham, MA, USA). Afterwards, the supernatant was mixed with azocasein (2%, SigmaAldrich, Germany) and incubated at 37 °C for 45 min. The reaction was stopped using 10% trichloroacetic acid and centrifuged at 9660× g, RT for 10 min. After centrifugation, the absorbance of the supernatants was measured at 440 nm and protease production in the treated sample calculated compared to the control (100% production).

P. aeruginosa MTCC 2488 = test system: P. aeruginosa MTCC 2488; set-up: method as in doi:10.1016/j.foodcont.2018.02.044; details: 48 h incubation, cited from earlier work
EPS production = test system: EPS production; set-up: method as in doi:10.1016/j.foodcont.2018.02.044; details: 200 µg/mL of rutin; cited from earlier work
[4] = subcultivation, 24 h at 37 °C, read-out: MBC

C[C@@H]1O[C@@H](OC[C@H]2O[C@@H](Oc3c(-c4ccc(O)c(O)c4)oc4cc(O)cc(O)c4c3=O)[C@H](O)[C@@H](O)[C@@H]2O)[C@H](O)[C@H](O)[C@H]1O [Rutin, rutin]
MIC (E. coli IBRS E003; 37 °C, 24 h, read-out: MIC): > 1000 µg/mL
MBC (E. coli IBRS E003; [4]): > 1000 µg/mL
MIC (E. coli IMD989; 37 °C, 24 h, read-out: MIC): 1000 µg/mL (≈ 1640 µM)
MBC (E. coli IMD989; [4]): 1000 µg/mL (≈ 1640 µM)
MIC (K. pneumoniae IT977; 37 °C, 24 h, read-out: MIC): 1000 µg/mL (≈ 1640 µM)
MBC (K. pneumoniae IT977; [4]): 1000 µg/mL (≈ 1640 µM)
MIC (K. pneumoniae Ni9; 37 °C, 24 h, read-out: MIC): 1000 µg/mL (≈ 1640 µM)
MBC (K. pneumoniae Ni9; [4]): 1000 µg/mL (≈ 1640 µM)
MIC (S. infantis 1371/1; 37 °C, 24 h, read-out: MIC): 1000 µg/mL (≈ 1640 µM)
MBC (S. infantis 1371/1; [4]): 1000 µg/mL (≈ 1640 µM)
catheter biofilm forming ability, in words (MRSA IBRS MRSA 011): significantly reduced
reduction of metabolic activity of cells forming the biofilm [1]: 88%
levels of eDNA in the biofilm matrix, in words [2]: significantly reduced
decrease of protease production [3]: more than 50%
highest biofilm inhibition (P. aeruginosa MTCC 2488; 400 µg/mL): 45.33%
biofilm inhibition (P. aeruginosa MTCC 2488; sub-MIC concentrations 50–400 µg/mL): up to 50%
inhibition of EPS production (EPS production): more than 40%
